Measurements taken from patent publication EP4596574A1, “GLP-1/GCG/GIP TRIPLE-RECEPTOR AGONIST AND USE THEREOF” (Sunshine Lake Pharma Co., Ltd., priority 2022, dated 2024).
pEC50: −log10 of the molar value. Marks after values point to notes of the source that are not given here. Starred links: 1 amine or outer side, 2 acyl side, 3 side chain; linkers in the order of their positions; H or OH if unused. Non-standard residues stand in square brackets, D forms with d. Residues, ends and D or L forms follow the SMILES beside them. Groups on a side chain read outwards from the residue. *: point of attachment. C20 diacid = O=C(O)CCCCCCCCCCCCCCCCCCC(=O)*; αMePhe(2-F) = C[C@](N)(Cc1ccccc1F)C(=O)O; γGlu = O=C(O)[C@H](CCC(=O)[*:2])N[*:1]; AEEA = NCCOCCOCC(=O)O; Aib = CC(C)(N)C(=O)O

Experiments:
[1] = molecular target: T1, GCGR (Homo sapiens, UniProt P47871); assay: In vitro cell activity, cAMP production in HEK293 cells expressing GCGR; assay type: cell-based; settings: HEK293-GCGR cells, cAMP; read-out: GCGR (EC50)
T1 construct: expressed in transfected cells; host or cells: HEK293 (HEK293-GCGR)
T1 sequence (P47871 26-477, species assumed): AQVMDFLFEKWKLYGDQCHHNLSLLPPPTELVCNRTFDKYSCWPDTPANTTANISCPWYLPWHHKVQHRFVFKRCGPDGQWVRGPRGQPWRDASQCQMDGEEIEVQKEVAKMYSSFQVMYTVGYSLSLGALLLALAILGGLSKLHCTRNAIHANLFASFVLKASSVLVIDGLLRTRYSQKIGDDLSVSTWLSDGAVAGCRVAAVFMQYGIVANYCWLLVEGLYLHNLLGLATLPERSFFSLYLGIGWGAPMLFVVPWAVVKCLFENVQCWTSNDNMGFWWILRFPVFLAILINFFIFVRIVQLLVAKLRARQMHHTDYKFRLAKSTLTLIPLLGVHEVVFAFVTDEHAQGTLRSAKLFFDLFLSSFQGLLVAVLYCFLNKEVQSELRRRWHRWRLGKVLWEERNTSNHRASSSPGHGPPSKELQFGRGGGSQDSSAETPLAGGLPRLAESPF
Procedure: (§1) After they were completely thawed within 1.5 minutes, the cells were added dropwise into a 15 mL centrifuge tube containing 8 mL of warm culture medium in a clean bench. The tubes were centrifuged at 900 rpm for 5 minutes, the supernatant was discarded, and the cells were resuspended in 1 mL of complete culture medium (by pipetting 15 times). 20 µL of the suspension was immediately taken and mixed with an equal volume of trypan blue. 20 µL was taken to count the number of live cells, and the cells were diluted to 4×10^5 cells/mL with complete culture medium. • 4) The 384-well plate was divided into GLP-1R cell, GCGR cell and GIPR cell areas. The cell suspension was added to the wells of the corresponding area at 5 µL per well using a 12-channel variable-channel adjustable dispenser. […] Then, the diluted cAMP-d2 working solution and anti-cAMP-crytate working solution were mixed evenly in a ratio of 1:1, and 10 µL was added to each well of the sample group. The wells were covered with white lids and placed at room temperature in the dark for 1 hour or at 4 °C overnight. • 6) The fluorescence values at 665 nm and 620 nm were detected in a multifunctional microplate reader. In GraphPad Prism 6, the signal ratio and sample concentration were nonlinearly fitted using a four-parameter equation to obtain the EC50 value.

[2] = molecular target: T2, GLP-1R (Homo sapiens, UniProt P43220); assay: In vitro cell activity, cAMP production in HEK293 cells expressing GLP-1R; assay type: cell-based; settings: HEK293-GLP-1R cells, cAMP; read-out: GLP-1R (EC50)
T2 construct: expressed in transfected cells; host or cells: HEK293 (HEK293-GLP-1R)
T2 sequence (P43220 24-463, species assumed): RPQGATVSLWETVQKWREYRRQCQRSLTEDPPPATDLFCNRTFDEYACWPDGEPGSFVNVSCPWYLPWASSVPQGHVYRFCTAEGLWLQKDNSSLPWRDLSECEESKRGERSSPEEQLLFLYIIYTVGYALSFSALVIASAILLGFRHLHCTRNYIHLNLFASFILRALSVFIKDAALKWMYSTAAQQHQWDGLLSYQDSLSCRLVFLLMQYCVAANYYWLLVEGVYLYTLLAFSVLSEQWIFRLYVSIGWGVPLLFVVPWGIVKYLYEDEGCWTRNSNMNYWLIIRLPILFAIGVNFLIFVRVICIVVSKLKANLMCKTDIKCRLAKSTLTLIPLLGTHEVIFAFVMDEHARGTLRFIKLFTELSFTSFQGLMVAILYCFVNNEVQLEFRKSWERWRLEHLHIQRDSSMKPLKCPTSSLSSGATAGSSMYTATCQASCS
Procedure: as §1

[3] = molecular target: T3, GIPR (Homo sapiens, UniProt P48546); assay: In vitro cell activity, cAMP production in HEK293 cells expressing GIPR; assay type: cell-based; settings: HEK293-GIPR cells, cAMP; read-out: GIPR (EC50)
T3 construct: expressed in transfected cells; host or cells: HEK293 (HEK293-GIPR)
T3 sequence (P48546 22-466): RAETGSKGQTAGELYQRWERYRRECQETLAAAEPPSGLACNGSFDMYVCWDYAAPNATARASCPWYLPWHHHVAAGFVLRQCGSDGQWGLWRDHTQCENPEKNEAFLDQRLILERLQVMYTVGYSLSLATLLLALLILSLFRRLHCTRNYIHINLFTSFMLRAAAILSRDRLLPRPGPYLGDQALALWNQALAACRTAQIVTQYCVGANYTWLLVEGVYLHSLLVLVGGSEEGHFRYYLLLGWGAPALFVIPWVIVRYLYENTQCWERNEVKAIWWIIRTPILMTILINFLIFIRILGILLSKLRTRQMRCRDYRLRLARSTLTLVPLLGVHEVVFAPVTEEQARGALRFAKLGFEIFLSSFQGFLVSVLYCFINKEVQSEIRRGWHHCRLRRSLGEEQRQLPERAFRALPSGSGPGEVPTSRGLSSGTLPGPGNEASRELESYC
Procedure: as §1, with “The wells were covered with white lids and placed at room temperature in the dark for 1 hour or at 4 °C overnight. • 6) The fluorescence values at 665 nm and 620 nm were detected in a multifunctional microplate reader.” left out

[4] = Long-term repeated administration in diet-induced obese C57BL/6 mice (DIO); assay type: in vivo, C57/BL6 mice
Source text: Experimental methods: C57/BL6 mice were randomly divided into a normal group (NFD) and a model group (HFD) at the fifth week of age. The normal group was fed with ordinary maintenance feed, while the other groups were fed with high-fat feed D12492. The body weight and food intake of mice were monitored every 3 weeks. After 16 weeks of feeding, the body weights of mice in the model group and the normal group were (49.0±2.3) g and (31.0±2.0) g, respectively, and the difference between the two groups was statistically significant. […] Body weight and food intake were measured before each administration. After 3 weeks of administration, an intraperitoneal glucose tolerance test was performed. The mice were slaughtered and samples were collected 72 h after the last administration. The liver weight was recorded, and the liver pathological conditions and blood biochemical indexes of each group were tested.

[5] = 10 nmol/kg s.c. once every 3 days, D7
[6] = 10 nmol/kg s.c. once every 3 days, D10
[7] = 10 nmol/kg s.c. once every 3 days, D13
[8] = 10 nmol/kg s.c. once every 3 days, D16
[9] = 10 nmol/kg s.c. once every 3 days, D19
[10] = 10 nmol/kg s.c. once every 3 days, D22
[11] = 10 nmol/kg s.c. once every 3 days, D25
[12] = 10 nmol/kg s.c. once every 3 days, D28
[13] = long-term administration 10 nmol/kg, 72 h after the last administration
[14] = long-term administration 10 nmol/kg, blood biochemical index

Molecule: CC[C@H](C)[C@H](NC(=O)[C@H](CCC(=O)O)NC(=O)[C@H](CC(=O)O)NC(=O)[C@H](CC(C)C)NC(=O)[C@H](CC(C)C)NC(=O)[C@@H](NC(=O)[C@H](CO)NC(=O)[C@H](Cc1ccc(O)cc1)NC(=O)[C@H](CC(=O)O)NC(=O)[C@H](CO)NC(=O)[C@@H](NC(=O)[C@](C)(Cc1ccccc1F)NC(=O)[C@@H](NC(=O)CNC(=O)[C@H](CCC(N)=O)NC(=O)C(C)(C)NC(=O)[C@@H](N)Cc1c[nH]cn1)[C@@H](C)O)[C@@H](C)O)[C@@H](C)CC)C(=O)N[C@@H](C)C(=O)N[C@@H](CCC(N)=O)C(=O)N[C@@H](CCCCNC(=O)COCCOCCNC(=O)COCCOCCNC(=O)CC[C@H](NC(=O)CCCCCCCCCCCCCCCCCCC(=O)O)C(=O)O)C(=O)N[C@@H](CC(=O)O)C(=O)N[C@@H](Cc1ccccc1)C(=O)N[C@H](C(=O)N[C@@H](CCC(=O)O)C(=O)N[C@@H](Cc1c[nH]c2ccccc12)C(=O)N[C@@H](CC(C)C)C(=O)N[C@@H](CC(C)C)C(=O)N[C@@H](CCC(=O)O)C(=O)NCC(=O)NCC(=O)N1CCC[C@H]1C(=O)N[C@@H](CO)C(=O)N[C@@H](CO)C(=O)NCC(=O)N[C@@H](C)C(=O)N1CCC[C@H]1C(=O)N1CCC[C@H]1C(=O)N1CCC[C@H]1C(=O)N[C@@H](CO)C(=O)O)[C@@H](C)CC [HEC-PT67] (H-H[Aib]QGT[αMePhe(2-F)]TSDYSILLDEIAQK([AEEA-AEEA-γGlu-C20 diacid])DFIEWLLEGGPSSGAPPPS-OH)
- pEC50 [1]: 7.24
- pEC50 [2]: 9.17
- pEC50 [3]: 9.40

Molecule: CC[C@H](C)[C@H](NC(=O)[C@H](Cc1ccccc1)NC(=O)[C@H](C)NC(=O)[C@H](CCCNC(=N)N)NC(=O)[C@H](CCC(N)=O)NC(=O)[C@H](CCCNC(=N)N)NC(=O)[C@H](CCCCNC(=O)COCCOCCNC(=O)CC[C@H](NC(=O)CCCCCCCCCCCCCCCCC(=O)O)C(=O)O)NC(=O)[C@H](CCC(=O)O)NC(=O)[C@H](CC(=O)O)NC(=O)[C@H](CC(C)C)NC(=O)[C@H](CC(C)C)NC(=O)[C@@H](NC(=O)[C@H](CO)NC(=O)[C@H](Cc1ccc(O)cc1)NC(=O)[C@H](CC(=O)O)NC(=O)[C@H](CO)NC(=O)[C@@H](NC(=O)[C@](C)(Cc1ccccc1F)NC(=O)[C@@H](NC(=O)CNC(=O)[C@H](Cc1c[nH]cn1)NC(=O)C(C)(C)NC(=O)[C@@H](N)Cc1ccc(O)cc1)[C@@H](C)O)[C@@H](C)O)[C@@H](C)CC)C(=O)N[C@@H](CCC(=O)O)C(=O)N[C@@H](Cc1ccc(O)cc1)C(=O)N[C@@H](CC(C)C)C(=O)N[C@@H](CC(C)C)C(=O)N[C@@H](CCC(=O)O)C(=O)NCC(=O)NCC(=O)N1CCC[C@H]1C(=O)N[C@@H](CO)C(=O)N[C@@H](CO)C(=O)NCC(=O)N[C@@H](C)C(=O)N1CCC[C@H]1C(=O)N1CCC[C@H]1C(=O)N1CCC[C@H]1C(=O)N[C@@H](CO)C(=O)O [HEC-PT120]
- pEC50 [1]: 9.70
- pEC50 [2]: 9.39
- pEC50 [3]: 9.73

Molecule: CC[C@H](C)[C@H](NC(=O)[C@H](Cc1ccccc1)NC(=O)[C@H](C)NC(=O)[C@H](CCCCN)NC(=O)[C@H](CCC(N)=O)NC(=O)[C@H](CCCNC(=N)N)NC(=O)[C@H](CCCCNC(=O)COCCOCCNC(=O)CC[C@H](NC(=O)CCCCCCCCCCCCCCCCC(=O)O)C(=O)O)NC(=O)[C@H](CCC(=O)O)NC(=O)[C@H](CC(=O)O)NC(=O)[C@H](CC(C)C)NC(=O)[C@H](CC(C)C)NC(=O)[C@@H](NC(=O)[C@H](CO)NC(=O)[C@H](Cc1ccc(O)cc1)NC(=O)[C@H](CC(=O)O)NC(=O)[C@H](CO)NC(=O)[C@@H](NC(=O)[C@](C)(Cc1ccccc1F)NC(=O)[C@@H](NC(=O)CNC(=O)[C@H](Cc1c[nH]cn1)NC(=O)C(C)(C)NC(=O)[C@@H](N)Cc1ccc(O)cc1)[C@@H](C)O)[C@@H](C)O)[C@@H](C)CC)C(=O)N[C@@H](CCC(=O)O)C(=O)N[C@@H](Cc1ccc(O)cc1)C(=O)N[C@@H](CC(C)C)C(=O)N[C@@H](CC(C)C)C(=O)N[C@@H](C)C(=O)NCC(=O)NCC(=O)N1CCC[C@H]1C(=O)N[C@@H](CO)C(=O)N[C@@H](CO)C(=O)NCC(=O)N[C@@H](C)C(=O)N1CCC[C@H]1C(=O)N1CCC[C@H]1C(=O)N1CCC[C@H]1C(=O)N[C@@H](CO)C(N)=O [HEC-PT121]
- pEC50 [1]: 9.05
- pEC50 [2]: 9.56
- pEC50 [3]: 10.09

Molecule: semaglutide [reference compound]
- Cumulative food intake (g/pcs) D7 [4, 5]: 14.1 g/pcs
- Weight gain rate (%) D7 [4, 5]: -8.1±1.7%
- Cumulative food intake (g/pcs) D10 [4, 6]: 19.4 g/pcs
- Weight gain rate (%) D10 [4, 6]: -10.8±2.2%
- Cumulative food intake (g/each) D13 [4, 7]: 25.2 g/each
- Weight gain rate (%) D13 [4, 7]: -13.5±3.2%
- Cumulative food intake (g/each) D16 [4, 8]: 31.5 g/each
- Weight gain rate (%) D16 [4, 8]: -14.2±3.8%
- Cumulative food intake (g/each) D19 [4, 9]: 38.1 g/each
- Weight gain rate (%) D19 [4, 9]: -14.2±4.1%
- Cumulative food intake (g/each) D22 [4, 10]: 45.0 g/each
- Weight gain rate (%) D22 [4, 10]: -14.5±4.5%
- Cumulative food intake (g/each) D25 [4, 11]: 51.6 g/each
- Weight gain rate (%) D25 [4, 11]: -16.5±4.1%
- Cumulative food intake (g/each) D28 [4, 12]: 58.9 g/each
- Weight gain rate (%) D28 [4, 12]: -18.5±5.1%
- Cumulative food intake (g/each) D30 ([4]; 10 nmol/kg s.c. once every 3 days, D30): 63.9^a g/each
- Weight gain rate (%) D31 ([4]; 10 nmol/kg s.c. once every 3 days, D31): -17.4±4.9^a %
- Cumulative food intake (g/pcs) D0 ([4]; 10 nmol/kg s.c., D0): 2.6 g/pcs
- Weight gain rate (%) D0 ([4]; 10 nmol/kg s.c., D0): 0.0±0.0%
- Cumulative food intake (g/pcs) D1 ([4]; 10 nmol/kg s.c., D1): 2.9 g/pcs
- Weight gain rate (%) D1 ([4]; 10 nmol/kg s.c., D1): -6.8±0.6%
- Cumulative food intake (g/pcs) D2 ([4]; 10 nmol/kg s.c., D2): 4.0 g/pcs
- Weight gain rate (%) D2 ([4]; 10 nmol/kg s.c., D2): -7.1±1.1%
- Cumulative food intake (g/pcs) D3 ([4]; 10 nmol/kg s.c., D3): 6.4 g/pcs
- Weight gain rate (%) D3 ([4]; 10 nmol/kg s.c., D3): -5.2±1.3%
- Cumulative food intake (g/pcs) D4 ([4]; 10 nmol/kg s.c., D4): 9.3 g/pcs
- Weight gain rate (%) D4 ([4]; 10 nmol/kg s.c., D4): -3.8±1.3%
- Liver index/% [4, 13]: 3.0±0.0^a %
- Liver/g [4, 13]: 1.1±0.1^a g
- Weight/g [4, 13]: 38.3±2.9^a g
- ALT (U/L) [4, 14]: 45.4±14.6^a U/L
- AST (U/L) [4, 14]: 131.2±19.2^a U/L
- CHOL (mmol/L) [4, 14]: 4.5±0.6^a mmol/L
- TRIGL (mmol/L) [4, 14]: 0.6±0.1^a mmol/L
